Test system: Sprague Dawley (SD) rats
Test: Hematology, 4-week subacute toxicity study
[1] = female rats, 2.4 mg/kg/day, End of dosing phase
[2] = female rats, 2.4 mg/kg/day, End of recovery phase
[3] = female rats, end of dosing phase
[4] = male rats, 0.6 mg/kg/day, End of dosing phase
[5] = male rats, 0.6 mg/kg/day, End of recovery phase
[6] = male rats, 1.2 mg/kg/day, End of dosing phase
[7] = male rats, 1.2 mg/kg/day, End of recovery phase
[8] = male rats, 2.4 mg/kg/day, End of dosing phase
[9] = male rats, 2.4 mg/kg/day, End of recovery phase

Fc1ccc([C@]2(CCNCc3cccc(Cl)c3)CCO[C@]3(CCOC3)C2)nc1 [LPM3480392]
MONO [1]: 0.03 ± 0.02^* 10^9/L | MONO% [1]: 1.0 ± 0.3 % | NEU [1]: 0.51 ± 0.29 10^9/L | NEU% [1]: 15.4 ± 4.6% | PLT [1]: 946 ± 108^* 10^9/L | RBC [1]: 6.57 ± 0.30^* 10^12/L | WBC [1]: 3.15 ± 0.87 10^9/L | LYM [2]: 3.02 ± 0.62 10^9/L | LYM% [2]: 83.7 ± 3.4 % | MCV [2]: 56.8 ± 0.8 fL | MONO [2]: 0.04 ± 0.01 10^9/L | MONO% [2]: 1.2 ± 0.3 % | NEU [2]: 0.46 ± 0.09^* 10^9/L | NEU% [2]: 12.8 ± 2.8 % | PLT [2]: 998 ± 45 10^9/L | RBC [2]: 7.45 ± 0.17 10^12/L | WBC [2]: 3.60 ± 0.67 10^9/L | Magnitude of change of MCV [3]: less than 5% | Magnitude of change of PLT [3]: < 15% | Magnitude of change of RBC [3]: < 6% | EOS [4]: 0.042 ± 0.013 10^9/L | EOS% [4]: 0.90 ± 0.42% | MONO [4]: 0.07 ± 0.03 10^9/L | MONO% [4]: 1.3 ± 0.6% | RBC [4]: 7.05 ± 0.32 10^12/L | RET [4]: 0.300 ± 0.051 10^12/L | RET % [4]: 4.26 ± 0.77% | WBC [4]: 5.19 ± 1.38 10^9/L | EOS [5]: 0.046 ± 0.018 10^9/L | EOS% [5]: 1.14 ± 0.38% | MONO [5]: 0.04 ± 0.02 10^9/L | MONO% [5]: 1.0 ± 0.4% | RBC [5]: 7.96 ± 0.24 10^12/L | RET [5]: 0.144 ± 0.021 10^12/L | RET % [5]: 1.81 ± 0.30% | WBC [5]: 4.04 ± 1.12 10^9/L | EOS [6]: 0.035 ± 0.016^* 10^9/L | EOS% [6]: 0.77 ± 0.39% | MONO [6]: 0.05 ± 0.02 10^9/L | MONO% [6]: 1.1 ± 0.3% | RBC [6]: 7.06 ± 0.32 10^12/L | RET [6]: 0.331 ± 0.062^* 10^12/L | RET % [6]: 4.70 ± 0.92 % | WBC [6]: 4.56 ± 0.55 10^9/L | EOS [7]: 0.042 ± 0.013 10^9/L | EOS% [7]: 0.90 ± 0.12% | MONO [7]: 0.04 ± 0.02 10^9/L | MONO% [7]: 0.9 ± 0.3% | RBC [7]: 7.99 ± 0.29 10^12/L | RET [7]: 0.132 ± 0.017 10^12/L | RET % [7]: 1.65 ± 0.21% | WBC [7]: 4.50 ± 1.16 10^9/L | EOS [8]: 0.022 ± 0.014^* 10^9/L | EOS% [8]: 0.49 ± 0.29 % | MONO [8]: 0.04 ± 0.02^* 10^9/L | MONO% [8]: 0.9 ± 0.4% | RBC [8]: 7.05 ± 0.37 10^12/L | RET [8]: 0.387 ± 0.053^* 10^12/L | RET % [8]: 5.51 ± 0.83 % | WBC [8]: 4.24 ± 0.98 10^9/L | EOS [9]: 0.032 ± 0.011 10^9/L | EOS% [9]: 0.66 ± 0.21% | MONO [9]: 0.05 ± 0.02 10^9/L | MONO% [9]: 1.1 ± 0.3% | RBC [9]: 7.62 ± 0.37 10^12/L | RET [9]: 0.157 ± 0.008 10^12/L | RET % [9]: 2.07 ± 0.11 % | WBC [9]: 5.02 ± 0.40 10^9/L
